According to patent US6916616B2, “Stabilized aqueous nucleoside triphosphate solutions” (priority 1996, dated 2005):

Tests used:
Format in all cases: physicochemical
[1] = Stabilization at room temperature (real-time model, 204 days, 20° C.); settings: for difference in decrease of triphosphate content pH 8.3 vs pH 7.5: 204 days
Protocol: (§1) d-NTP solutions at a concentration of 100 to 110 mmol/l were adjusted to pH values between 7.5 and 8.3 with sodium hydroxide solution. The sample was stored at 35° C., 22° C., 4° C. and −20° C. Aliquots were removed at various time points and the purity was examined by means of HPLC. The relative amount of the tri, di and monophosphate as well as of the free base was determined by integrating the areas.
After 204 days (20° C.) the difference in the pH stabilization became apparent (in the real-time model). […] In the case of d-GTP solutions the triphosphate content decreased for example by ca. 6.8% at pH 7.5 and by ca. 5.2% at pH 8.3 (difference 23%).

[2] = Stress experiments of d-NTP solutions at 35° C., triphosphate content by HPLC; settings: pH 8.3 compared to pH 7.5, 35° C., three independent stress experiments, samples between 7 and 89 days
Protocol: as §1, with “areas. The stabilization was estimated by the following formula from three independent stress experiments of d-NTPs at pH 8.3 and 7.5 at 35° C. in which samples were taken at intervals between 7 and 89 days. Δ content (pH 8.3)−Δ content (7.5)×100 Δ content (pH 7.5) in which Δ content (pH . . . )=content (t=0)−content (t)” for “areas.”

[3] = Determination of the pH optimum of the d-NTPs (35 days at 35° C., HPLC); settings: 100 to 110 mmol/l
Protocol: d-NTP solutions (dCTP, dTTP, dUTP) at a concentration of 100 to 110 mmol/l were adjusted to pH values between 7.5 and 12 (d-ATP, dGTP not pH 7.9 and 8.3) with sodium hydroxide solution. The sample was stressed for 35 days at 35° C. and subsequently the purity was examined by means of HPLC. The relative amount of the tri, di and monophosphate as well as of the free base was determined by integrating the areas.

difference in decrease of triphosphate content pH 8.3 vs pH 7.5 [1] [%] | decrease of triphosphate content ([1]; pH 7.5, 204 days) | decrease of triphosphate content ([1]; pH 8.3, 204 days) | stabilization, average value [2] [%] | stabilization, maximum value [2] [%] | stabilization, minimum value [2] [%] | degradation up to pH 12 [3] | Compound
17 | ca. 7.6% | ca. 6.3% | 19 | 33 | 9 | – | Nc1ncnc2c1ncn2[C@H]1C[C@H](O)[C@@H](COP(=O)(O)OP(=O)(O)OP(=O)(O)O)O1 [d-ATP]
– | – | – | 20 | 37 | 10 | deaminated at pH 12 to form d-UTP | Nc1ccn([C@H]2C[C@H](O)[C@@H](COP(=O)(O)OP(=O)(O)OP(=O)(O)O)O2)c(=O)n1 [d-CTP]
23 | ca. 6.8% | ca. 5.2% | 21 | 30 | 12 | – | Nc1nc2c(ncn2[C@H]2C[C@H](O)[C@@H](COP(=O)(O)OP(=O)(O)OP(=O)(O)O)O2)c(=O)[nH]1 [d-GTP]
– | – | – | 5 | 17 | 26 | – | Cc1cn([C@H]2C[C@H](O)[C@@H](COP(=O)(O)OP(=O)(O)OP(=O)(O)O)O2)c(=O)[nH]c1=O [d-TTP]
– | – | – | 5 | 15 | 25 | – | O=c1ccn([C@H]2C[C@H](O)[C@@H](COP(=O)(O)OP(=O)(O)OP(=O)(O)O)O2)c(=O)[nH]1 [d-UTP]
